Values quoted from earlier work in patent publication US20230321241A1, “CANCER PEPTIDE VACCINE AND METHOD OF PREPARING THE SAME” (BrightPath Biotherapeutics Co., Ltd., priority 2020, published 2023).

System: PD-L1-Positive Non-Small-Cell Lung Cancer
Conditions: pembrolizumab alone in similar subjects; cited from earlier work

For “pembrolizumab: anti-PD-1 antibody (Merck & Co., Inc.)”, the response rate is listed as 45%.
